Patent US20240207274A1, “Larotrectinib and moderate CYP3A4 inducer” (Bayer Consumer Care AG, priority 2022, published 2024)
“Also recorded” adds a separate entry of the source. Read-outs that look alike come from different tables or passages of the source.

What was measured:
[1] = test system: CYP3A4; settings: classification of the drugs included in the PBPK study; cited from earlier work
[2] = test system: Transporter Systems; settings: substrate of the transporter named in the cell; FDA list; cited from earlier work
[3] = test system: CYP Enzymes; settings: moderate inducer of the CYP named in the cell; FDA list filtered for moderate CYP3A4 inducers; cenobamate classification based on 200 mg daily dose; cited from earlier work
[4] = Observed plasma concentrations of larotrectinib, single oral dose 100 mg alone and with itraconazole or rifampicin; format: in vivo, human; settings: for Ratio AUC / Ratio Cmax: Observed, single oral dose 100 mg larotrectinib
[5] = target: CYP3A4 (Homo sapiens, UniProt P08684); settings: following oral administration; cited from earlier work
Chain of CYP3A4 (Homo sapiens, UniProt P08684) (P08684 whole entry): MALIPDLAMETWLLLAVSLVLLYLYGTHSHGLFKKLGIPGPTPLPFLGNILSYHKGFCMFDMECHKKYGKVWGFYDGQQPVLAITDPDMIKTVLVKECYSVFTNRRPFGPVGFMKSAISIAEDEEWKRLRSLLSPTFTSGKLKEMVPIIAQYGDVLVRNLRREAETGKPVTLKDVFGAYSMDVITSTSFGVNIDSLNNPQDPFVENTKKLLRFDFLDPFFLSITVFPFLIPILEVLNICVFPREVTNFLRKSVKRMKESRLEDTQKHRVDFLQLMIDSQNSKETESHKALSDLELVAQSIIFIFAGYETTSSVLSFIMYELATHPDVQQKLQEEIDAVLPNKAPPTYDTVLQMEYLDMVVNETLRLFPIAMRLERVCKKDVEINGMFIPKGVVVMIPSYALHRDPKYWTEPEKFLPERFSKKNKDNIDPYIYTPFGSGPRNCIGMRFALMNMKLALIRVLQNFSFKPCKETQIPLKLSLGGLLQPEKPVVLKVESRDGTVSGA

[6] = test system: CYP3A4; settings: cited from earlier work
[7] = plus itraconazole (200 mg QD, 5th day of 7) / control, healthy subjects
[8] = plus rifampicin (600 mg QD, 10th day of 11) / control
[9] = coadministration of larotrectinib with rifampicin 600 mg QD

SMILES: OC(Cn1cncn1)(Cn1cncn1)c1ccc(F)cc1F [Fluconazole]
- CYP3A4 Effect [1]: Moderate CYP3A4 inhibitor

SMILES: CCC(C)n1ncn(-c2ccc(N3CCN(c4ccc(OCC5COC(Cn6cncn6)(c6ccc(Cl)cc6Cl)O5)cc4)CC3)cc2)c1=O (centres unmarked) [Itraconazole]
- CYP3A4 Effect [1]: Strong CYP3A4 inhibitor

SMILES: COc1ccccc1Oc1c(NS(=O)(=O)c2ccc(C(C)(C)C)cc2)nc(-c2ncccn2)nc1OCCO [bosentan]
- TRNSP SUB [2]: OATP1B1;; also recorded: OATP1B3

SMILES: NC(=O)O[C@@H](Cn1ncnn1)c1ccccc1Cl [cenobamate]
- CYP Mod IND [3]: CYP3A4

SMILES: O=C1Nc2ccc(Cl)cc2[C@@](C#CC2CC2)(C(F)(F)F)O1 [efavirenz]
- CYP3A4 Effect [1]: Moderate CYP3A4 induced

SMILES: O=C(Nc1cnn2ccc(N3CCC[C@@H]3c3cc(F)ccc3F)nc12)N1CC[C@H](O)C1 [larotrectinib]
- Ratio AUC [4, 7]: 4.31
- Ratio Cmax [4, 7]: 2.81
- Ratio AUC [4, 8]: 0.19
- Ratio Cmax [4, 8]: 0.29
- observed reduction in exposure, AUC [4, 9]: 81%
- observed reduction in exposure, Cmax [4, 9]: 71%
- metabolism [5]: metabolized by CYP3A4

SMILES: CCC1(c2ccccc2)C(=O)NC(=O)NC1=O [phenobarbital]
- classification as CYP3A4 inducer ([6]; listed by FDA): moderate inducer
- classification as CYP3A4 inducer ([6]; listed by a leading clinical support website (UpToDate)): strong inducer
